What was measured:
Haemonchus contortus L3 = assay: microbe, parasite or virus in culture; format: cell-based; conditions: Haemonchus contortus, 96 h, read-out: HcL3 Minimal Effective Concentration (MEC)
D. immitis microfilariae = assay: Dirofilaria immitis, microfilariae (DiMF) in vitro motility assay; format: cell-based; conditions: Dirofilaria immitis, 72 h, read-out: DiMF minimally effective dose (MEC)

| Compound | minimal effective concentration (Haemonchus contortus L3) [µM] | minimal effective concentration (D. immitis microfilariae) [µM] |
| --- | --- | --- |
| N#Cc1ccc2c(c1)c1c(n2C(=O)NCc2ccnc(F)c2)CCN(C/C=C/c2ccc(Cl)cc2Cl)C1 [Example 101, (E)-8-cyano-2-(3-(2,4-dichlorophenyl)allyl)-N-((2-fluoropyridin-4-yl)methyl)-1,2,3,4-tetrahydro-5H-pyrido[4,3-b]indole-5-carboxamide] | 0.2 | 24 |
| N#Cc1ccc2c(c1)c1c(n2C(=O)NCc2ccnc(F)c2)CCN(C/C=C/c2c(F)cc(Cl)cc2F)C1 [Example 103, (E)-2-(3-(4-chloro-2,6-difluorophenyl)allyl)-8-cyano-N-((2-fluoropyridin-4-yl)methyl)-1,2,3,4-tetrahydro-5H-pyrido[4,3-b]indole-5-carboxamide] | 0.2 | 3.3 |
| N#Cc1ccc2c(c1)c1c(n2C(=O)NCc2ccnc(F)c2)CCN(C/C=C/c2ccc(Cl)cc2F)C1 [Example 104, (E)-2-(3-(4-chloro-2-fluorophenyl)allyl)-8-cyano-N-((2-fluoropyridin-4-yl)methyl)-1,2,3,4-tetrahydro-5H-pyrido[4,3-b]indole-5-carboxamide] | 0.1 | 3.2 |
| N#Cc1ccc2c(c1)c1c(n2C(=O)NCc2ccnc(F)c2)CCN(C/C=C/c2ccc(Br)c(F)c2)C1 [Example 105, (E)-2-(3-(4-bromo-3-fluorophenyl)allyl)-8-cyano-N-((2-fluoropyridin-4-yl)methyl)-1,2,3,4-tetrahydro-5H-pyrido[4,3-b]indole-5-carboxamide] | 0.3 | > 100 |
| N#Cc1ccc2c(c1)c1c(n2C(=O)NCc2ccnc(F)c2)CCN(C/C=C/c2c(F)cc(F)cc2F)C1 [Example 106, (E)-8-cyano-N-((2-fluoropyridin-4-yl)methyl)-2-(3-(2,4,6-trifluorophenyl)allyl)-1,2,3,4-tetrahydro-5H-pyrido[4,3-b]indole-5-carboxamide] | 0.3 | > 100 |
| N#Cc1ccc2c(c1)c1c(n2C(=O)NCc2ccnc(F)c2)CCN(C/C=C/c2cc(F)ccc2Br)C1 [Example 107, (E)-2-(3-(2-bromo-5-fluorophenyl)allyl)-8-cyano-N-((2-fluoropyridin-4-yl)methyl)-1,2,3,4-tetrahydro-5H-pyrido[4,3-b]indole-5-carboxamide] | 0.5 | 1.8 |
| N#Cc1ccc2c(c1)c1c(n2C(=O)NCc2ccnc(F)c2)CCN(C/C=C/c2ccc(F)c(F)c2F)C1 [Example 110, (E)-8-cyano-N-((2-fluoropyridin-4-yl)methyl)-2-(3-(2,3,4-trifluorophenyl)allyl)-1,2,3,4-tetrahydro-5H-pyrido[4,3-b]indole-5-carboxamide] | 0.3 | > 100 |
| N#Cc1ccc2c(c1)c1c(n2C(=O)NCc2ccnc(F)c2)CCN(C/C=C/c2ccc(Br)c(F)c2F)C1 [Example 111, (E)-2-(3-(4-bromo-2,3-difluorophenyl)allyl)-8-cyano-N-((2-fluoropyridin-4-yl)methyl)-1,2,3,4-tetrahydro-5H-pyrido[4,3-b]indole-5-carboxamide] | 0.3 | > 100 |
| N#Cc1ccc2c(c1)c1c(n2C(=O)NCc2ccnc(F)c2)CCN(C/C=C/c2cc(Cl)c(F)c(Cl)c2)C1 [Example 112, (E)-8-cyano-2-(3-(3,5-dichloro-4-fluorophenyl)allyl)-N-((2-fluoropyridin-4-yl)methyl)-1,2,3,4-tetrahydro-5H-pyrido[4,3-b]indole-5-carboxamide] | 0.5 | > 100 |
| N#Cc1ccc2c(c1)c1c(n2C(=O)NCc2ccnc(F)c2)CCN(C/C=C/c2ccc(F)c(C#N)c2)C1 [Example 113, (E)-8-cyano-2-(3-(3-cyano-4-fluorophenyl)allyl)-N-((2-fluoropyridin-4-yl)methyl)-1,2,3,4-tetrahydro-5H-pyrido[4,3-b]indole-5-carboxamide] | 1.3 | > 100 |
| N#Cc1ccc2c(c1)c1c(n2C(=O)NCc2ccnc(F)c2)CCN(C/C=C/c2ccc(F)cc2Cl)C1 [Example 114, (E)-2-(3-(2-chloro-4-fluorophenyl)allyl)-8-cyano-N-((2-fluoropyridin-4-yl)methyl)-1,2,3,4-tetrahydro-5H-pyrido[4,3-b]indole-5-carboxamide] | 0.1 | 10 |
| N#Cc1ccc2c(c1)c1c(n2C(=O)NCc2ccnc(F)c2)CCN(C/C=C/c2cc(F)c(F)c(F)c2)C1 [Example 116, (E)-8-cyano-N-((2-fluoropyridin-4-yl)methyl)-2-(3-(3,4,5-trifluorophenyl)allyl)-1,2,3,4-tetrahydro-5H-pyrido[4,3-b]indole-5-carboxamide] | 0.1 | 1.3 |
| N#Cc1ccc2c(c1)c1c(n2C(=O)NCc2ccnc(F)c2)CCN(C/C=C/c2cc(F)cc(F)c2)C1 [Example 117, (E)-8-cyano-2-(3-(3,5-difluorophenyl)allyl)-N-((2-fluoropyridin-4-yl)methyl)-1,2,3,4-tetrahydro-5H-pyrido[4,3-b]indole-5-carboxamide] | 0.2 | 1.8 |
| N#Cc1ccc2c(c1)c1c(n2C(=O)NCc2ccnc(F)c2)CCN(C/C=C/c2cccc(Cl)c2F)C1 [Example 118, (E)-2-(3-(3-chloro-2-fluorophenyl)allyl)-8-cyano-N-((2-fluoropyridin-4-yl)methyl)-1,2,3,4-tetrahydro-5H-pyrido[4,3-b]indole-5-carboxamide] | 1.8 | 5.7 |
| N#Cc1ccc2c(c1)c1c(n2C(=O)NCc2ccnc(F)c2)CCN(C/C=C/c2cccc(F)c2F)C1 [Example 119, (E)-8-cyano-2-(3-(2,3-difluorophenyl)allyl)-N-((2-fluoropyridin-4-yl)methyl)-1,2,3,4-tetrahydro-5H-pyrido[4,3-b]indole-5-carboxamide] | 3.3 | 18.2 |
| N#Cc1ccc(/C=C/CN2CCc3c(c4cc(C#N)ccc4n3C(=O)NCc3ccnc(F)c3)C2)cc1 [Example 120, (E)-8-cyano-2-(3-(4-cyanophenyl)allyl)-N-((2-fluoropyridin-4-yl)methyl)-1,2,3,4-tetrahydro-5H-pyrido[4,3-b]indole-5-carboxamide] | 0.5 | > 100 |
| N#Cc1ccc2c(c1)c1c(n2C(=O)NCc2ccnc(F)c2)CCN(C/C=C/c2ccc(Cl)cc2)C1 [Example 121, (E)-2-(3-(4-chlorophenyl)allyl)-8-cyano-N-((2-fluoropyridin-4-yl)methyl)-1,2,3,4-tetrahydro-5H-pyrido[4,3-b]indole-5-carboxamide] | 0.3 | 10 |
| N#Cc1ccc2c(c1)c1c(n2C(=O)NCc2ccnc(F)c2)CCN(C/C=C/c2ccncc2)C1 [Example 124, (E)-8-cyano-N-((2-fluoropyridin-4-yl)methyl)-2-(3-(pyridin-4-yl)allyl)-1,2,3,4-tetrahydro-5H-pyrido[4,3-b]indole-5-carboxamide] | 100 | 33 |
